Assay [1] addresses Interleukin-1 receptor-associated kinase 1 (Homo sapiens) (UniProt P51617). Put plainly: Selectivity interaction (Upstate Kinase Profiler service (Millipore)) EUB0000056c IRAK1. The conditions noted are these: at 1 µM.
The target of assay [2] is Epidermal growth factor receptor (Homo sapiens, UniProt P00533). The experiment in a line: Selectivity interaction (Radiometric kinase assay (using 10 uM ATP)) EUB0000601a EGFR.
The target of assay [3] is Receptor tyrosine-protein kinase erbB-4 (Homo sapiens, UniProt Q15303). The experiment in a line: Selectivity interaction (Millipore kinase profiler) EUB0000124b ERBB4. The conditions noted are these: at 10 µM.
Sequence of Receptor tyrosine-protein kinase erbB-4 (Q15303 whole entry): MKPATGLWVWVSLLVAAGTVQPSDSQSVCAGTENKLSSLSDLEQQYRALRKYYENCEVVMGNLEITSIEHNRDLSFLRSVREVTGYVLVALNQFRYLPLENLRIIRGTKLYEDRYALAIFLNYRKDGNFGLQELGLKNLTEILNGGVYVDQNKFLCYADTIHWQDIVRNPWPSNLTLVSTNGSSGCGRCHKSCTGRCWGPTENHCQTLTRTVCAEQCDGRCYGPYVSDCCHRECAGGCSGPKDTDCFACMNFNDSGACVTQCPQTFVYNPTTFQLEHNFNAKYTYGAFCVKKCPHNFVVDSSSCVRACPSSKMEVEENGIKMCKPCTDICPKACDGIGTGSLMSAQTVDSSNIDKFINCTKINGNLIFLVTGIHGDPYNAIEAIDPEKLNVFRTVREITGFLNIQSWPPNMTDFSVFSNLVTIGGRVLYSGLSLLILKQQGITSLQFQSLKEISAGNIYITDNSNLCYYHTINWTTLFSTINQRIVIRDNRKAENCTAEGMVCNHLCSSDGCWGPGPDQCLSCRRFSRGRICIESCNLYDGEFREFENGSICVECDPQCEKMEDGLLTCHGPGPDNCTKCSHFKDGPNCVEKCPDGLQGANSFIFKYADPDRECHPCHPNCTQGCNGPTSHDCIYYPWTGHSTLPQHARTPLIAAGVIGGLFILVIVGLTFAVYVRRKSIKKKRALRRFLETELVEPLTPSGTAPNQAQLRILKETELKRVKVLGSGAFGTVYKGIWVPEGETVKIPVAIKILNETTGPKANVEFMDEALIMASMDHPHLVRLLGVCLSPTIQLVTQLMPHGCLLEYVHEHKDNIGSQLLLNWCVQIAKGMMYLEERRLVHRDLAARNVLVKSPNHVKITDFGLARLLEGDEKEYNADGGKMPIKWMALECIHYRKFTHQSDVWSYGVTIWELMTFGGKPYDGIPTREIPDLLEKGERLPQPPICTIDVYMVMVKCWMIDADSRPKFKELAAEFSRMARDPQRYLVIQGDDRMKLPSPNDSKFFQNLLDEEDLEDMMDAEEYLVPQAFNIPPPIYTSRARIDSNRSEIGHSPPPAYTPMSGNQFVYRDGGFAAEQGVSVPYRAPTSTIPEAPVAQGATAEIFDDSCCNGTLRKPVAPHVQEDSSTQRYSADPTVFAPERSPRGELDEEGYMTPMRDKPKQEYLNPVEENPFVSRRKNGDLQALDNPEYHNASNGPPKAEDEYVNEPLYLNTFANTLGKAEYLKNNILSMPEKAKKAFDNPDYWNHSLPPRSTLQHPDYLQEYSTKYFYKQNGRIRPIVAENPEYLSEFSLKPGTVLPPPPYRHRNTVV
The target of assay [4] is Vascular endothelial growth factor receptor 1 (Homo sapiens) (UniProt P17948). Put plainly: Selectivity interaction (KinomeScan (DiscoverX)) EUB0000092b FLT1. The conditions noted are these: at 10 µM.
Sequence of Vascular endothelial growth factor receptor 1 (Homo sapiens) (P17948 whole entry): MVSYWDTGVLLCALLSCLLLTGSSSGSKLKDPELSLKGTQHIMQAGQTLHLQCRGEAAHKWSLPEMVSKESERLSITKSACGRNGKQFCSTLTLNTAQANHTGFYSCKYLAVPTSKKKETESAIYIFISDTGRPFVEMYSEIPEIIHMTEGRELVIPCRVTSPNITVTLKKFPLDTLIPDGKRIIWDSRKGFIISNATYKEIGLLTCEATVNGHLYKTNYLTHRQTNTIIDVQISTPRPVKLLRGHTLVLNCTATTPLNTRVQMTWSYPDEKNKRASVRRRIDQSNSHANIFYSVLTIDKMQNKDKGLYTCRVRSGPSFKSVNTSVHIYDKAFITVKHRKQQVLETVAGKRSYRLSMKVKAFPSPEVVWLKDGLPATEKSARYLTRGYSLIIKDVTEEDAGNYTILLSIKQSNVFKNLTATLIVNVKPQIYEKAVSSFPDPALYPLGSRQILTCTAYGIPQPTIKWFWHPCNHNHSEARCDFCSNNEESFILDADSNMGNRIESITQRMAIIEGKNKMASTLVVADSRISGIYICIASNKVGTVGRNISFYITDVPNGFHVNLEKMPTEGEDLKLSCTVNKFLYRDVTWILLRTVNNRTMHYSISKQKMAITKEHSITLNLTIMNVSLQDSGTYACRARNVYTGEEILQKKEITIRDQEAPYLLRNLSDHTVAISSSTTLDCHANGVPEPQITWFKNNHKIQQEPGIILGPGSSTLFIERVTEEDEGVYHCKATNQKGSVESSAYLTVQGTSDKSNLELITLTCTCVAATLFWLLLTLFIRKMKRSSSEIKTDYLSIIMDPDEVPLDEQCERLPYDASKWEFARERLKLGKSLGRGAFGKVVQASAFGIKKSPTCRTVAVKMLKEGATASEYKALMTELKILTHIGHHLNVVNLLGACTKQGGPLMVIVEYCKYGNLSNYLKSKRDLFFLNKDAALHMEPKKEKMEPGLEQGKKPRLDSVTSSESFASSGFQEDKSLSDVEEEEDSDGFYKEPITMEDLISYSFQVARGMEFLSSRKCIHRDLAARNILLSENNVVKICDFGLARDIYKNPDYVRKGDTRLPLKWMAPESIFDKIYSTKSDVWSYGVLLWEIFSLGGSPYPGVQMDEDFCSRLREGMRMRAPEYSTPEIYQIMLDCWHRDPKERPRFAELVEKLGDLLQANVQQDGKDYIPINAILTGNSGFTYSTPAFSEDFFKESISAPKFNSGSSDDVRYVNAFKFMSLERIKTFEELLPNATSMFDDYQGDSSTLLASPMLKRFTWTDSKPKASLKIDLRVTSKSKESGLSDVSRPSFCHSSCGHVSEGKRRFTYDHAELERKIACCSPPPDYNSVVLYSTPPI
Assay [5] concerns the target T1, SNF-related serine/threonine-protein kinase (Homo sapiens) (UniProt Q9NRH2).
T1 sequence (whole entry): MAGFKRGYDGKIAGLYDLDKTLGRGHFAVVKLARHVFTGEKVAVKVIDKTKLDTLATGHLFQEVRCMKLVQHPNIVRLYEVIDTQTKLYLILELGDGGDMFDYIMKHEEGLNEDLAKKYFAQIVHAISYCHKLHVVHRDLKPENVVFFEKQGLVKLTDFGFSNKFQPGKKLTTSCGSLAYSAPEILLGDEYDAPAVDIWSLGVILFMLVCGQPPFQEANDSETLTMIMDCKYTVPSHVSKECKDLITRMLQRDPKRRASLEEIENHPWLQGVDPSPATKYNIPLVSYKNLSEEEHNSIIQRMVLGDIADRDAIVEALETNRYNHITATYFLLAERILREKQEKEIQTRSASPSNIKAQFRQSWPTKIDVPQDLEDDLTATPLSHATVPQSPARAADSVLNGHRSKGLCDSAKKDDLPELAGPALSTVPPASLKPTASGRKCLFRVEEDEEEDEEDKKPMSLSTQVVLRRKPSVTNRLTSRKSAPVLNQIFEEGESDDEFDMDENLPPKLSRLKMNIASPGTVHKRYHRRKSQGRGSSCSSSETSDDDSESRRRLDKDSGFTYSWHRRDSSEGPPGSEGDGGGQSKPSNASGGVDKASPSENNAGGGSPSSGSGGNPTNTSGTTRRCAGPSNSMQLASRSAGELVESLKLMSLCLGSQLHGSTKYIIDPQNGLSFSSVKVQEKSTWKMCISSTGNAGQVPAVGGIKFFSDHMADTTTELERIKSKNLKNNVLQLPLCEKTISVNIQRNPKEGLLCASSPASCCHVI
Put plainly: Selectivity interaction (KinomeScan (DiscoverX)) EUB0000655a SNRK. The conditions noted are these: at 10 µM.

In assay [6] the target is T2, cAMP-dependent protein kinase catalytic subunit PRKX (Homo sapiens) (UniProt P51817).
T2 sequence (whole entry): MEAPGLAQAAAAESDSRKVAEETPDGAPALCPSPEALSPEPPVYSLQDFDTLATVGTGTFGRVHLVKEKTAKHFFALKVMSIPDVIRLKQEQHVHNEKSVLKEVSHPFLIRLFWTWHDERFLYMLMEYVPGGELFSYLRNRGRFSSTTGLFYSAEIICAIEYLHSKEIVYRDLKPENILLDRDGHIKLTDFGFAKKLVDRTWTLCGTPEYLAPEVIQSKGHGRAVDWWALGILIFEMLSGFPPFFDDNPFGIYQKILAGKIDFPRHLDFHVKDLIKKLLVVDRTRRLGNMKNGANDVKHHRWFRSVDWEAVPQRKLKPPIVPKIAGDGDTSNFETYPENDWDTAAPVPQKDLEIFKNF
Put plainly: Selectivity interaction (KinomeScan (DiscoverX)) EUB0000666a PRKX. The conditions noted are these: at 10 µM.

Assay [7] has as its target Serine/threonine-protein kinase PAK 6 (Homo sapiens) (UniProt Q9NQU5). The experiment in a line: Selectivity interaction (KinomeScan (DiscoverX)) EUB0000607a PAK6. The conditions noted are these: at 10 µM.
Assay [8] addresses 5'-AMP-activated protein kinase catalytic subunit alpha-1 (Homo sapiens, UniProt Q13131). Put plainly: Selectivity interaction (ActivX KiNativ screen (kinase selectivity in THP-1 cell lysates)) EUB0000639a PRKAA1. It counts as subcellular. The conditions noted are these: lysate, at 0.04 µM.
Assay [9] deals with T3, Serine/threonine-protein kinase Nek1 (Homo sapiens) (UniProt Q96PY6).
T3 sequence (whole entry): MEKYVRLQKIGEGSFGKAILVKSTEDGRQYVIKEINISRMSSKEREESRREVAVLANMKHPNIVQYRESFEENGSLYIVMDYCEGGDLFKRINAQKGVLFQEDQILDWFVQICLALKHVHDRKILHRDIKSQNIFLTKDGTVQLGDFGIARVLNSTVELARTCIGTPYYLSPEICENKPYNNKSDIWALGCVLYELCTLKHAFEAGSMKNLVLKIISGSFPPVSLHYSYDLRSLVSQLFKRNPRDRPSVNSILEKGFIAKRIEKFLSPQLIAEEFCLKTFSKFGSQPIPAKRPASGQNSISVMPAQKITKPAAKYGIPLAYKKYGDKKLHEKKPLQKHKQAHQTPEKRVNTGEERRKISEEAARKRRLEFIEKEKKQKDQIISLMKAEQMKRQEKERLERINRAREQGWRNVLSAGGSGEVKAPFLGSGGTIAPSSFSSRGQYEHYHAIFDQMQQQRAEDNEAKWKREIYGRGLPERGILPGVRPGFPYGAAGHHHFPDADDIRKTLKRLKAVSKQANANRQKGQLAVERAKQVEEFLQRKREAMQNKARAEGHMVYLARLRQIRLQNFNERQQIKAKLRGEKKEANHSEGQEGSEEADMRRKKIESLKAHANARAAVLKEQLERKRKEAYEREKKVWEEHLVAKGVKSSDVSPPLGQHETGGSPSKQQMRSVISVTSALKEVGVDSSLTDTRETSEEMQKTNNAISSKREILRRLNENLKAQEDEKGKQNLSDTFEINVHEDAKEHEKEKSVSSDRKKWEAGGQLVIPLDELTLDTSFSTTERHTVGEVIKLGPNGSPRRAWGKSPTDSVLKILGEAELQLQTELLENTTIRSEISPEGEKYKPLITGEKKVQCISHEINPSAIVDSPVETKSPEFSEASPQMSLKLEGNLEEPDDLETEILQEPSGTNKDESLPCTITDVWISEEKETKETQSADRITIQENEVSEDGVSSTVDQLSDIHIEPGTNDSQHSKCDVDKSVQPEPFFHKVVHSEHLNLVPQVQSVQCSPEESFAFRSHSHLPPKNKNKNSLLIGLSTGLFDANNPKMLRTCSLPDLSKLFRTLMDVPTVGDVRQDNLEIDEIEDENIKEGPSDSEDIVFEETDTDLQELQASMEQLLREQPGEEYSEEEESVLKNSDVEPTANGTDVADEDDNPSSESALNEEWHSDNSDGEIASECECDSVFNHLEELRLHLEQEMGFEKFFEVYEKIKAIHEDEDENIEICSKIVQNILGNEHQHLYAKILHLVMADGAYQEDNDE
The experiment in a line: Selectivity interaction (KinomeScan (DiscoverX)) EUB0000229b NEK1. The conditions noted are these: at 10 µM.

For assay [10], the target named is Amine oxidase [flavin-containing] A (Homo sapiens, UniProt P21397). The experiment in a line: Selectivity interaction (Monoamine Oxidase A, human recombinant baculovirus ) EUB0000877a MAOA.
Sequence of Amine oxidase [flavin-containing] A (P21397 whole entry): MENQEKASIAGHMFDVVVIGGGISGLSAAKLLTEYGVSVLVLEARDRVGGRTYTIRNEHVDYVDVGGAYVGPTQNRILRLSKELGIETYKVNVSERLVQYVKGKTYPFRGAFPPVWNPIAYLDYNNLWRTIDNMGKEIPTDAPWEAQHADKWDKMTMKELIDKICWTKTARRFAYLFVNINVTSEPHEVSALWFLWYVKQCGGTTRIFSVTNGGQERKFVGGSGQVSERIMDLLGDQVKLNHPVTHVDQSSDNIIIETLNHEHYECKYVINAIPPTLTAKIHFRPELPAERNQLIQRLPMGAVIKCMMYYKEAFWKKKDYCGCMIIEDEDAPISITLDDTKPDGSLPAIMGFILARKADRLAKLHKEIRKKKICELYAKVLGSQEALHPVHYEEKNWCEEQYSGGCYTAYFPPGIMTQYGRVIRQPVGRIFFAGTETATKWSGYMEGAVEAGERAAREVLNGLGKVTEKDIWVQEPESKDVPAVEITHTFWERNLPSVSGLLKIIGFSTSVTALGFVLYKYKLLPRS
Assay [11] addresses T3, Serine/threonine-protein kinase Nek1 (Homo sapiens). Put plainly: Selectivity interaction (KinomeScan (DiscoverX)) EUB0001619a NEK1. The conditions noted are these: at 1 µM.

Where only a bound is given, the exact number is not on record here.

Sequence of 5'-AMP-activated protein kinase catalytic subunit alpha-1 (Q13131 whole entry, looked up): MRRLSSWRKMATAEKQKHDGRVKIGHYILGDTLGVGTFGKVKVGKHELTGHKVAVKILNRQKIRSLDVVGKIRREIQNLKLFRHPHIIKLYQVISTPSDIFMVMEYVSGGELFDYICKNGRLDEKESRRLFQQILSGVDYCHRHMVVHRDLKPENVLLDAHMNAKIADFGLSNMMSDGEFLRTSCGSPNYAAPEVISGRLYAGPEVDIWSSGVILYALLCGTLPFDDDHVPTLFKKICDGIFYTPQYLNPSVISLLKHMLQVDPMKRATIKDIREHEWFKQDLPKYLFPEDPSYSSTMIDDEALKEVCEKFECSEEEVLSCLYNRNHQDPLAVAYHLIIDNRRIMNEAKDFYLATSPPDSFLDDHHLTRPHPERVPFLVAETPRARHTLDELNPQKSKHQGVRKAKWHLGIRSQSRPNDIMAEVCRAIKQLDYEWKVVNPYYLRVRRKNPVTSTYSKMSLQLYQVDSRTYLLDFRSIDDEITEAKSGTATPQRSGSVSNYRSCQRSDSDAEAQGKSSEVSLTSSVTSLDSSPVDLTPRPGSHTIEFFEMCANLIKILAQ
Sequence of Serine/threonine-protein kinase PAK 6 (Homo sapiens) (Q9NQU5 whole entry, looked up): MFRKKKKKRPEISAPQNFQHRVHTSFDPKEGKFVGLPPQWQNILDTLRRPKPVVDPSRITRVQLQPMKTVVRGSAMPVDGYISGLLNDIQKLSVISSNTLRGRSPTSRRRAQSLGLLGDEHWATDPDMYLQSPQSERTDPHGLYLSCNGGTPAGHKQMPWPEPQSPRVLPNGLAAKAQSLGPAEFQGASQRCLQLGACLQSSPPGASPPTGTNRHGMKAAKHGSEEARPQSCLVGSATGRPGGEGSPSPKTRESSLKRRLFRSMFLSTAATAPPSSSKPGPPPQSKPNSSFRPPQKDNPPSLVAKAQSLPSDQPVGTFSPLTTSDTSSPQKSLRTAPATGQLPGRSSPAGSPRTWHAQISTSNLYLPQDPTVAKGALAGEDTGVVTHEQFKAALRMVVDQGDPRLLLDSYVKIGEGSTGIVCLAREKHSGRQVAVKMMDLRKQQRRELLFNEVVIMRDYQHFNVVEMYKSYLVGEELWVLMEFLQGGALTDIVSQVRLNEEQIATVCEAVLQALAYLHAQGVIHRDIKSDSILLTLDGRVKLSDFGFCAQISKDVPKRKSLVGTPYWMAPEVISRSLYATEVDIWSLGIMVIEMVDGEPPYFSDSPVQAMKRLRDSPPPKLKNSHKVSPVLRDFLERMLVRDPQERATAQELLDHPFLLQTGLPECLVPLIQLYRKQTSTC

Consider `Cc1ccc(-c2ccc3c(ccc4sc5c(c43)NC[C@@H](C)NC5=O)n2)cn1`, for which the % of inhibition in assay [1] came to 22%.

Consider `CCc1cc(Nc2nccc(-c3c(-c4ccc(OC)c(C(=O)Nc5c(F)cccc5F)c4)nc4ccccn34)n2)c(OC)cc1N1CCC(N2CCN(S(C)(=O)=O)CC2)CC1`, for which the 50% inhibitory concentration (IC50) in [2] is > 10 µM.

As to `CC(=O)Nc1cccc(-n2c(=O)n(C3CC3)c(=O)c3c(Nc4ccc(I)cc4F)n(C)c(=O)c(C)c32)c1`, the % of control in assay [3] turned out to be 101%.

In assay [4], `CCC(=O)N1CCN(c2ccc(-n3c(=O)ccc4cnc5ccc(-c6cnc7ccccc7c6)cc5c43)cc2C(F)(F)F)CC1` returned a % of control of 79%.

Compound `CN(C)CCOc1ccc(-c2nc(-c3ccncc3)c(-c3ccc4c(c3)CC/C4=N\O)[nH]2)cc1` gave a % of control in assay [5] of 89%.

With `O=C(NOC[C@H](O)CO)c1ccc(F)c(F)c1Nc1ccc(I)cc1F`, in assay [6], the % of control turned out to be 100%.

For the compound `CNC(=O)Nc1ccc(-c2nc(N3CC4CCC(C3)O4)c3cnn(C4CCC5(CC4)OCCO5)c3n2)cc1`, the % of control in [7] worked out at 100%.

For `CC[C@@H]1[C@H](F)C(=O)N[C@@H]1COc1nccc2cc(C(N)=O)c(OC)cc12` [ZIMLOVISERTIB], the % of inhibition in [8] was -11.5%.

As for `COc1cc(N(C)c2ccnc3ccc(C(F)(F)F)cc23)cc(OC)c1OC`, the % binding in assay [9] was 78%.

On to `CCC(=O)N1CC[C@H](Nc2ncnc3c2CN(c2cnc(OC)c(C(F)(F)F)c2)CC3)C1` [LENIOLISIB], for which the IC50 in [10] is > 30 µM.

`N#Cc1cccc(-c2c[nH]c3ncnc(N4CCOCC4)c23)c1` showed a % of control in assay [11] of 100%.

As a reminder, the IC50 is the concentration needed to halve the response being measured.

The values are drawn from ChEMBL document CHEMBL5465560, “Selectivity Literature for EUbOPEN Chemogenomic Library” (2024).
